Our source for the Activity values is ChEMBL document CHEMBL1155283, “Synthesis and anabolic/androgenic evaluation of novel 9alpha-fluorosteroids” (Eur J Med Chem, 2009).

Calls of active or inactive are those of the source. No cut-off for these calls is given here.

Assay type in all cases: functional, organism-based
Assay [1] deals with Rattus norvegicus. The assay can be described thus: Anabolic activity in Wistar rat assessed as weight of levator ani muscle at 40 mg/kg of corporal weight, sc after 7 days by animal castration method. Also noted: dose 40 mg/kg.
Assay [2] has as its system Rattus norvegicus. The assay can be described thus: Anabolic activity in Wistar rat assessed as weight of levator ani muscle at 10 mg/kg of corporal weight, sc after 7 days by animal castration method. Also noted: dose 10 mg/kg.
The subject of assay [3] is Rattus norvegicus. The assay can be described thus: Androgenic activity in Wistar rat assessed as weight of prostate at 20 mg/kg of corporal weight, sc after 7 days by animal castration method. The note with it: Prostate gland. Also noted: dose 20 mg/kg.
Assay [4] concerns Rattus norvegicus. The assay can be described thus: Androgenic activity in Wistar rat assessed as weight of seminal vesicle at 20 mg/kg of corporal weight, sc after 7 days by animal castration method. Set-up: dose 20 mg/kg.
The subject of assay [5] is Rattus norvegicus. The assay can be described thus: Androgenic activity in Wistar rat assessed as weight of seminal vesicle at 10 mg/kg of corporal weight, sc after 7 days by animal castration method. Set-up: dose 10 mg/kg.
Assay [6] concerns Rattus norvegicus. The assay can be described thus: Anabolic activity in Wistar rat assessed as weight of levator ani muscle at 20 mg/kg of corporal weight, sc after 7 days by animal castration method. Also noted: dose 20 mg/kg.
Assay [7] has as its system Rattus norvegicus. The assay can be described thus: Androgenic activity in Wistar rat assessed as weight of prostate at 40 mg/kg of corporal weight, sc after 7 days by animal castration method. Also noted: dose 40 mg/kg. Particulars: Prostate gland.
For assay [8], the system named is Rattus norvegicus. The assay can be described thus: Androgenic activity in Wistar rat assessed as weight of seminal vesicle at 40 mg/kg of corporal weight, sc after 7 days by animal castration method. Set-up: dose 40 mg/kg.
For assay [9], the system named is Rattus norvegicus. The assay can be described thus: Androgenic activity in Wistar rat assessed as weight of prostate at 10 mg/kg of corporal weight, sc after 7 days by animal castration method. Set-up: dose 10 mg/kg. Particulars: Prostate gland.

Take `CC(=O)O[C@H]1CC[C@@]2(C)[C@@H](CC[C@H]3[C@@H]4CCC(=O)[C@@]4(C)C[C@H](O)[C@@]32F)C1`: the result in the assay with Rattus norvegicus [1], in the assay on Rattus norvegicus [2], with Rattus norvegicus [4], in the assay on Rattus norvegicus [5], in the assay on Rattus norvegicus [6] and in the assay with Rattus norvegicus [8] was inactive. The outcome in the assay with Rattus norvegicus [3] and with Rattus norvegicus [7] was Active.
For `CC(=O)O[C@H]1CC[C@@]2(C)[C@@H](CC[C@H]3[C@@H]4CC[C@H](O)[C@@]4(C)C[C@H](O)[C@@]32F)C1`, the result in the assay with Rattus norvegicus [1] and with Rattus norvegicus [6] was Active. The outcome in the assay on Rattus norvegicus [5] was inactive.
For the compound `CCCCCCC(=O)O[C@H]1CC[C@H]2[C@@H]3CC[C@H]4C[C@@H](O)CC[C@]4(C)[C@@]3(F)[C@@H](O)C[C@]12C`, the outcome in the assay on Rattus norvegicus [3], in the assay with Rattus norvegicus [4], in the assay on Rattus norvegicus [9], with Rattus norvegicus [5], in the assay on Rattus norvegicus [7] and in the assay on Rattus norvegicus [8] was inactive.
Take `C[C@]12CC[C@H](O)C[C@@H]1CC[C@H]1[C@@H]3CCC(=O)[C@@]3(C)C[C@H](O)[C@@]12F`: the outcome in the assay on Rattus norvegicus [3], in the assay with Rattus norvegicus [4], with Rattus norvegicus [9], with Rattus norvegicus [5], with Rattus norvegicus [7] and in the assay with Rattus norvegicus [8] was inactive.
In the case of `CC(C)C(=O)O[C@H]1CC[C@H]2[C@@H]3CC[C@H]4C[C@@H](O)CC[C@]4(C)[C@@]3(F)[C@@H](O)C[C@]12C`, the result with Rattus norvegicus [3] and in the assay with Rattus norvegicus [9] was Active. Moreover, the outcome in the assay with Rattus norvegicus [4], in the assay on Rattus norvegicus [5] and with Rattus norvegicus [8] was inactive.
Consider `CCC(=O)O[C@H]1CC[C@H]2[C@@H]3CC[C@H]4C[C@@H](OC(C)=O)CC[C@]4(C)[C@@]3(F)[C@@H](O)C[C@]12C`, for which the result in the assay on Rattus norvegicus [2], in the assay with Rattus norvegicus [3], in the assay with Rattus norvegicus [9] and in the assay on Rattus norvegicus [6] was Active.
As to `CC(=O)O[C@H]1CC[C@@]2(C)[C@@H](CC[C@H]3[C@@H]4CC[C@H](OC(C)=O)[C@@]4(C)C[C@H](O)[C@@]32F)C1`, the outcome in the assay on Rattus norvegicus [3] and in the assay with Rattus norvegicus [7] was Active.
